For eight compounds, TGI results are on record in PubChem BioAssay (NCI).

Test systems include COLO 205 colon; OVCAR-4 ovarian; A549 NSCLC; RPMI-8226 leukemia; UACC-257 melanoma; 786-0 renal; U251 CNS; MALME-3M melanoma; HCC-2998 colon; UO-31 renal; MDA-MB-231 breast; DU-145 prostate; SK-OV-3 ovarian; HCT-116 colon; SNB-75 CNS; HOP-62 NSCLC; EKVX NSCLC; HT29 colon; HL-60(TB) leukemia; SF-539 CNS.
Holding throughout (assay): DTP human tumour cell line panel, 48 h

SMILES strings stand for the structures.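 The compound was tested at five concentrations on cells cultured in 96-well plates, with a 48-hour exposure period. TGI is the concentration that stops growth completely.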

Take `CCOc1ccc(N/C(=C(/C(Cl)=C(/Cl)Nc2ccccc2)[N+](=O)[O-])n2nnc3ccccc32)cc1`: the TGI in the assay with COLO 205 colon is 50.6 µM; with OVCAR-4 ovarian it was above 100 µM; in the assay on A549 NSCLC it was above 100 µM; in the assay on RPMI-8226 leukemia it was above 100 µM; in the assay on UACC-257 melanoma it was above 100 µM; in the assay with 786-0 renal, 62.3 µM. In addition, the TGI was 33.6 µM in the assay on U251 CNS; 44.4 µM in the assay with MALME-3M melanoma; above 100 µM in the assay on HCC-2998 colon; 54.5 µM with UO-31 renal; 58.1 µM in the assay on MDA-MB-231 breast; above 100 µM with DU-145 prostate. Moreover, the concentration for total growth inhibition (TGI) in the assay with SK-OV-3 ovarian is above 100 µM; in the assay with HCT-116 colon, 56 µM; with SNB-75 CNS, above 100 µM; in the assay with HOP-62 NSCLC, 70.3 µM; in the assay on EKVX NSCLC, above 100 µM.

Turning to `c1ccc2c(CN3CCN(Cc4c[nH]c5ccccc45)CC3)c[nH]c2c1`, the concentration for total growth inhibition (TGI) is 20.8 µM in the assay on COLO 205 colon; above 100 µM with OVCAR-4 ovarian; 36.1 µM in the assay on HT29 colon; 53.2 µM with RPMI-8226 leukemia; 27.5 µM in the assay with UACC-257 melanoma; 31.6 µM in the assay on 786-0 renal. Further, the concentration for total growth inhibition (TGI) with U251 CNS amounted to 29.3 µM; in the assay with MALME-3M melanoma, 29.5 µM; in the assay with HCC-2998 colon it was 3.29 µM; in the assay on UO-31 renal it was 27.7 µM; in the assay on MDA-MB-231 breast, 31.2 µM; in the assay on DU-145 prostate, 40.7 µM. Besides, the TGI in the assay on SK-OV-3 ovarian is 61.8 µM; in the assay on HL-60(TB) leukemia it was 39.3 µM; in the assay with HCT-116 colon it was 28.6 µM; in the assay with SNB-75 CNS, 30.2 µM; in the assay with HOP-62 NSCLC, 31.2 µM; in the assay with EKVX NSCLC, 39.4 µM.

Turning to `Cc1ccc(S(=O)(=O)CN2C(=O)C(c3ccccc3)(c3ccccc3)C23OC(c2ccc(Cl)cc2)=CC3=O)cc1` (stereo unspecified), the concentration for total growth inhibition (TGI) in the assay on COLO 205 colon, in the assay with OVCAR-4 ovarian, with A549 NSCLC, with HT29 colon, with UACC-257 melanoma and in the assay on 786-0 renal was above 10 µM in each case. Besides, the TGI in the assay with U251 CNS, in the assay on MALME-3M melanoma, in the assay with HCC-2998 colon, in the assay with UO-31 renal, in the assay on MDA-MB-231 breast and with DU-145 prostate was above 10 µM throughout. Besides, the TGI in the assay with SK-OV-3 ovarian, in the assay on SF-539 CNS, in the assay with HL-60(TB) leukemia, in the assay on HCT-116 colon, with SNB-75 CNS and in the assay on HOP-62 NSCLC was above 10 µM each time. Further, the TGI in the assay on EKVX NSCLC was above 10 µM.

With `COc1cc2c(cc1C[C@H]1[C@@H]3C[C@H]4c5c(c6ccccc6n5C)C[C@@H]([C@@H]3CO[C@]1(C)OC(C)=O)N4C)c1c(n2C)C2C[C@H]3C(C(C)=O)=COC[C@H]3[C@H](C1)N2C`, the TGI is 6.19 µM with COLO 205 colon; above 25 µM in the assay with OVCAR-4 ovarian; above 25 µM in the assay with A549 NSCLC; 4.86 µM in the assay with HT29 colon; 3.56 µM with RPMI-8226 leukemia; 8.01 µM with UACC-257 melanoma. In addition, the TGI in the assay with 786-0 renal was 5.89 µM; in the assay with U251 CNS, above 25 µM; in the assay with MALME-3M melanoma, 6.42 µM; in the assay on HCC-2998 colon, 0.246 µM; with UO-31 renal, above 25 µM; with MDA-MB-231 breast it was 11.2 µM. For the same compound, the TGI was above 25 µM in the assay with DU-145 prostate; above 25 µM in the assay with SK-OV-3 ovarian; 5.87 µM in the assay with SF-539 CNS; 5.39 µM with HCT-116 colon; 6.29 µM in the assay on HOP-62 NSCLC; 2.24 µM with EKVX NSCLC.

Take `O=C1NC(=S)N/C1=C\c1cc2c(=O)c3ccccc3sc2s1`: the TGI with COLO 205 colon, in the assay on OVCAR-4 ovarian, in the assay with HT29 colon, in the assay with RPMI-8226 leukemia, in the assay on UACC-257 melanoma and in the assay on 786-0 renal was above 100 µM in each case. In addition, the concentration for total growth inhibition (TGI) in the assay on U251 CNS, with MALME-3M melanoma, in the assay on HCC-2998 colon, in the assay on UO-31 renal, in the assay on MDA-MB-231 breast and in the assay with DU-145 prostate was above 100 µM throughout. Also, the TGI is above 100 µM in the assay with HL-60(TB) leukemia; above 100 µM in the assay on HCT-116 colon; 72 µM with SNB-75 CNS; above 100 µM in the assay with HOP-62 NSCLC; above 100 µM in the assay on EKVX NSCLC.

As for `C=C1CCCC2[C@](C)(CC3=C(Cl)C(=O)C=C(OC)C3=O)C(C)CC[C@]12C` (stereo partly specified), the TGI in the assay on COLO 205 colon worked out at 9.76 µM; in the assay on OVCAR-4 ovarian, 14.2 µM; in the assay on A549 NSCLC, 11.1 µM; in the assay on HT29 colon, 7.37 µM; in the assay with RPMI-8226 leukemia, 14.6 µM; with UACC-257 melanoma, 13.6 µM. Besides, the TGI was 6.53 µM with 786-0 renal; 11.2 µM with U251 CNS; 16.3 µM with MALME-3M melanoma; 23.9 µM in the assay on HCC-2998 colon; 5.77 µM in the assay with UO-31 renal; 16.9 µM in the assay with MDA-MB-231 breast. Further, the TGI is 15.2 µM in the assay on DU-145 prostate; 46.5 µM in the assay with SK-OV-3 ovarian; 9.06 µM in the assay with SF-539 CNS; 10.3 µM in the assay with HL-60(TB) leukemia; 6.43 µM with HCT-116 colon; 13.5 µM with HOP-62 NSCLC. This compound also came in with a TGI with EKVX NSCLC of 5.06 µM.

In the case of `COc1cc2nc(Nc3cccc(Br)c3)nc(Nc3cccc(Br)c3)c2cc1OC`, the TGI in the assay with COLO 205 colon was found to be 27.7 µM; in the assay on OVCAR-4 ovarian, 30.9 µM; in the assay on A549 NSCLC, 32.6 µM; in the assay on HT29 colon, 34.8 µM; with 786-0 renal, 31 µM; in the assay with U251 CNS, 35.7 µM. Also, the concentration for total growth inhibition (TGI) was 34.7 µM in the assay with MALME-3M melanoma; 44.6 µM in the assay with HCC-2998 colon; 29.4 µM in the assay with UO-31 renal; 39.7 µM in the assay with MDA-MB-231 breast; 34.1 µM in the assay on DU-145 prostate; 34.4 µM with SK-OV-3 ovarian. In addition, the TGI with HCT-116 colon was determined as 31.4 µM; with SNB-75 CNS, 31.8 µM; with HOP-62 NSCLC it was 33.6 µM; in the assay on EKVX NSCLC, 39.8 µM.

Take `N#CC(N)c1ccc(OCCCCCCCCCCOc2ccc(C(N)C#N)cc2)cc1` (stereo unspecified): the TGI in the assay with COLO 205 colon, with OVCAR-4 ovarian, in the assay with A549 NSCLC, with HT29 colon, with UACC-257 melanoma and in the assay on 786-0 renal was above 100 µM throughout. The TGI in the assay with U251 CNS, in the assay on MALME-3M melanoma, in the assay on HCC-2998 colon, in the assay with UO-31 renal, in the assay on MDA-MB-231 breast and with DU-145 prostate was above 100 µM in each case. The TGI with SK-OV-3 ovarian, in the assay with SF-539 CNS, in the assay with HL-60(TB) leukemia, in the assay with HCT-116 colon and in the assay with EKVX NSCLC was above 100 µM throughout.

In general, TGI refers to the concentration at which net growth stops.
